The source of these data is patent US9796673B2 (TEVA PHARMACEUTICALS INTERNATIONAL GMBH, priority 2014, dated 2017).

Structures can show the parent of a compound that is named as a salt.

For series [1] the following is noted: acid; cited from earlier work.
The nature of series [2]: Dynamic vapor sorption (DVS) hygroscopicity. It is filed as physicochemical. The note with it: for Hygroscopicity 40% RH: Table 3, 40% RH; for Hygroscopicity 75% RH: Table 3, 75% RH; for Hygroscopicity 90% RH: Table 3, 90% RH. The method, then:
DVS—Measurement of Dynamic Vapor Sorption: DVS experiments have been carried out using the DVS-HT instrument (Surface Measurement Systems, London, UK). This instrument measures the uptake and loss of vapor gravimetrically using a recording ultra-microbalance with a mass resolution of ±0.1 μg. The vapor partial pressure (±1.0%) around the sample is controlled by mixing saturated and dry carrier gas streams using electronic mass flow controllers. The desired temperature is maintained at ±0.1° C. […] The sample was loaded and unloaded at 40% RH and 25° C. (typical room conditions). A moisture sorption isotherm was performed as outlined below (2 scans giving 1 complete cycle). The software uses a least squares minimization procedure together with a model of the mass relaxation, to predict an asymptotic value. The measured mass equilibration value must be within 2% of that predicted by the software before proceeding to the next % RH value. The minimum equilibration time was set to 1 hour and the maximum to 4 hours.

The conditions of series [3]: 4 week, 40° C. and 75% RH.
For series [4] the following is noted: for pH: pH column of water solubility table (Table 2).
Protocol: Estimation of Water Solubility: A kinetic solubility experiment was performed. Powder samples were placed in glass vials and shaken for 20 minutes in water. […] The samples were then centrifuged to insure that no solids remained. The concentration of pridopidine in the supernatant was measured by HPLC and calculated based on a standard curve. […] Excess pridopidine was suspended in the solutions in glass vials and shaken for 72 hours at 25° C. The samples were then centrifuged and the pH of the supernatant was measured. The concentration of pridopdine in the supernatant was measured by HPLC and calculated based on a standard curve.
The conditions of series [5]: WO 01/46145 salt; cited from earlier work.

Regarding `O=S(=O)(O)c1ccccc1` [Benzene sulfonic acid], the pKa1 in series [1] is 0.70.
As to `CCCN1CCC(c2cccc(S(C)(=O)=O)c2)CC1.CCCN1CCC(c2cccc(S(C)(=O)=O)c2)CC1.O=C(O)CCC(=O)O` [Succinate (hemi), pridopidine succinate (hemi)], in series [2], the “Deliquescence during the DVS test” value is on record as “deliquesced”, the “Hygroscopicity 40% RH” value is 3%, the “Hygroscopicity 75% RH” value was determined as 40% and the “Hygroscopicity 90% RH” value is reported as 70%. In addition, the DVS weight gain in series [2] (40% RH) is on record as 3%. In series [2] (70% RH), the DVS weight gain was 4%. Moreover, the DVS weight gain in series [2] (90% RH) is on record as 37%.
Turning to pridopidine L-malate, in series [3], the “chemical and physical stability” value is reported as “acceptable”. For the same compound, in series [2], the “Hygroscopicity 40% RH” value turned out to be 0.1%, the “Hygroscopicity 75% RH” value amounted to 0.2% and the “Hygroscopicity 90% RH” value worked out at 17.2%. In addition, the “Water solubility, Conc.” value in series [4] (kinetic, in water, shaken 20 minutes) was 76 mg/mL. The pH in series [4] is given as 3.9.
As to pridopidine tosylate, in series [2], the “XRPD pattern before and after the DVS test” value is listed as “no change in XRPD pattern”; the “Hygroscopicity 40% RH” value is 0.02%; the “Hygroscopicity 75% RH” value was found to be 0.1%; the “Hygroscopicity 90% RH” value amounted to 0.2%. Besides, the DVS weight gain in series [2] (40% RH) amounted to 0.02%. Further, the DVS weight gain in series [2] (70% RH) came out at 0.1%. In series [2] (90% RH), the DVS weight gain was 0.2%.
Regarding `O=C(O)CO` [Glycolic acid], the pKa1 in series [1] is 3.28.
For the compound `Br.CCCN1CCC(c2cccc(S(C)(=O)=O)c2)CC1` [HBr, reference compound], in series [2], the “Hygroscopicity 40% RH” value is reported as 0.04%, the “Hygroscopicity 75% RH” value amounted to 0.08% and the “Hygroscopicity 90% RH” value is on record as 0.12%.
On to `O=S(=O)(O)c1ccc2ccccc2c1` [Naphthalene 2-sulfonic acid], for which, in series [1], the pKa1 is recorded as 0.17.
Take `CCCN1CCC(c2cccc(S(C)(=O)=O)c2)CC1` [Hydrochloride, pridopidine hydrochloride, reference compound]: in series [2], the “Hygroscopicity 40% RH” value was 0.1%, the “Hygroscopicity 75% RH” value was 0.45% and the “Hygroscopicity 90% RH” value came to 7.3%. For the same compound, in series [5], the “relative humidities at which non-hygroscopic” value is “below 86%” and the “relative humidity in excess of which deliquescent” value was over 86%. This compound also returned a pH in series [4] of 6.0.
